We go through eleven molecules from patent US11591336B2 (Relay Therapeutics, Inc., priority 2017, dated 2023).

SMILES strings stand for the structures.

What is called IC50 is the point on the concentration scale where inhibition reaches its midpoint. A higher IC50 goes with lower potency.

The target in the test is SHP2 (Homo sapiens (Human), UniProt Q06124). Nature of the test: SHP2 Allosteric Inhibition Assay (DiFMUP prompt fluorescence). Type of test: biochemical. The conditions noted are these: 0.25 nM SHP2 activated with 0.5 μM peptide IRS1_pY1172(dPEG8)pY1222; substrate DiFMUP 100 μM; 25° C.
Sequence of SHP2 (Q06124 whole entry): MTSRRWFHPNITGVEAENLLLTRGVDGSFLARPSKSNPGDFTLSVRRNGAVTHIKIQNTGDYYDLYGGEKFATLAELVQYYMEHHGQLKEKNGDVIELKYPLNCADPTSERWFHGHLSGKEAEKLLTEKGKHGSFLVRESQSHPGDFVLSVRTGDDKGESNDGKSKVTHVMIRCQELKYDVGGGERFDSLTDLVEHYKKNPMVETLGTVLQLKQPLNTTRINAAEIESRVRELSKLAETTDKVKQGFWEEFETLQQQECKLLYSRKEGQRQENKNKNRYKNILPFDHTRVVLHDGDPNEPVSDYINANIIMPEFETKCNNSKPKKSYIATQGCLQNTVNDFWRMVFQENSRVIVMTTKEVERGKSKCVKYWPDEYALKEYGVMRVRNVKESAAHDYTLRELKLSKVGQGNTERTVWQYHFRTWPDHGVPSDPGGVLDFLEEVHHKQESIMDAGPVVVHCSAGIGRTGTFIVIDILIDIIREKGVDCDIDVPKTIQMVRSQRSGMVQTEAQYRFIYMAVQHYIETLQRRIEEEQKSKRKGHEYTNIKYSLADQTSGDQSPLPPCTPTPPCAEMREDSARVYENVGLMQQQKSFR
Molecule `C[C@@H]1OCC2(CCN(c3cnc4c(N5CCCc6c([C@@H]7CC(=O)N(C)C7)cccc65)n[nH]c4n3)CC2)[C@@H]1N` [Compound 523] displayed an IC50 below 1000 nM. Next, `C[C@@H]1OCC2(CCN(c3cnc4c(N5CCCc6c5ccc(C#N)c6[C@H]5CCCO5)n[nH]c4n3)CC2)[C@@H]1N` [Compound 524]: below 1000 nM.

`C[C@@H]1OCC2(CCN(c3cnc4c(N5CCCc6c5ccc(C#N)c6[C@H]5CC(=O)N(C)C5)n[nH]c4n3)CC2)[C@@H]1N` [Compound 525] gave an IC50 below 1000 nM. Next, `C[C@@H]1OCC2(CCN(c3cnc4c(N5CCN([C@H]6C[C@@](C)(O)C6)c6cc(C#N)ccc65)n[nH]c4n3)CC2)[C@@H]1N` [Compound 526]: below 1000 nM. Regarding `C[C@@H]1OCC2(CCN(c3cnc4c(N5CCN([C@H]6C[C@](C)(O)C6)c6cc(C#N)ccc65)n[nH]c4n3)CC2)[C@@H]1N` [Compound 527], the IC50 is below 1000 nM. For the molecule `C[C@@H]1OCC2(CCN(c3cnc4c(N5CCCc6c5ccc(C#N)c6CC#N)n[nH]c4n3)CC2)[C@@H]1N` [Compound 528], the IC50 is below 1000 nM. Next, `C[C@@H]1OCC2(CCN(c3cnc4c(N5CCN(CCF)c6cc(C#N)ccc65)n[nH]c4n3)CC2)[C@@H]1N` [Compound 529]: below 1000 nM; `C[C@@H]1OCC2(CCN(c3cnc4c(N5CCN(C6CC(F)(F)C6)c6cc(C#N)ccc65)n[nH]c4n3)CC2)[C@@H]1N` [Compound 530]: below 1000 nM.

Take `C[C@@H]1OCC2(CCN(c3cnc4c(N5CCCc6ncsc65)n[nH]c4n3)CC2)[C@@H]1N` [Compound 531]: the 50% inhibitory concentration (IC50) is below 1000 nM.

In the case of `C[C@@H]1OCC2(CCN(c3cnc4c(N5CCN(C67CC(F)(C6)C7)c6cc(C#N)ccc65)n[nH]c4n3)CC2)[C@@H]1N` [Compound 532], the IC50 is below 1000 nM. Next, `CO[C@H]1C[C@H](N2CCN(c3n[nH]c4nc(N5CCC6(CC5)CO[C@@H](C)[C@H]6N)cnc34)c3ccc(C#N)cc32)C1` [compound 472]: 1000 to 10000 nM.
